Measurements taken from patent publication US20260199484A1, “PROTAC DEGRADERS OF MLLT1 AND/OR MLLT3” (DARK BLUE THERAPEUTICS LTD, priority 2024, published 2026).

Molecular target: T1, MLLT1 (Homo sapiens, UniProt Q03111)
T1 sequence (Q03111 1-559): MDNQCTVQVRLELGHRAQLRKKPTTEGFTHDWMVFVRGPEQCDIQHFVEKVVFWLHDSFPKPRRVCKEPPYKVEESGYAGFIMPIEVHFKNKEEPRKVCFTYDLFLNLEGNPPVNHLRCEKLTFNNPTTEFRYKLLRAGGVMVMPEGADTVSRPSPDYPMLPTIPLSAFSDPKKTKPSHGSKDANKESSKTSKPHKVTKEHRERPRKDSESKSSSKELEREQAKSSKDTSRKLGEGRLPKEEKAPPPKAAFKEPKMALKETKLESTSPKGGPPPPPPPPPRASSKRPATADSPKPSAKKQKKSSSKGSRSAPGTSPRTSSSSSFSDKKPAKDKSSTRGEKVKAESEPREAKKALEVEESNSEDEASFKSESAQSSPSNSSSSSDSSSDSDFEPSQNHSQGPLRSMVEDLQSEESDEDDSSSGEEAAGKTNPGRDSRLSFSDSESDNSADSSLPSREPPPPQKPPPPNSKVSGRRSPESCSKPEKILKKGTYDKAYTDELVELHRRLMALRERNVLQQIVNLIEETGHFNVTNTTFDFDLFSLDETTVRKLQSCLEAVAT
Experiment: MLLT1 degradation assay in MV4-11 cells (JESS, 24 h)
Type: cell-based
Parameters: endogenous in cells; host or cells: MV4-11 (ATCC CRL-9591)
Details: vs DMSO control
Experimental: MLLT1 degradation efficacy of compounds was tested in an automated chemiluminescent detection system (JESS, Cat #004-650). MV4-11 (#CRL-9591, ATCC) cells were seeded at a density of 1.2 million cells/well in a non-treated 6-well cell culture plate in 2.4 mL of complete medium (IMDM+10% FBS+1× Penicillin-Streptomycin). 10 mM DMSO stocks were prepared, and cells were treated with three concentrations of test compounds viz. 1000, 100 and 10 nM at a final DMSO concentration of 0.1% and incubated for 24 h at 37° C., 5% CO2. Post incubation, cells were centrifuged, washed with HBSS and lysed in 70 μL of RIPA buffer supplemented with Protease inhibitors (sc-24948; Santa Cruz). Subsequently, protein estimation was done using BCA protein assay kit (23225; Pierce). 4 ug protein lysate (4 uL of 1 ug/uL lysate) was loaded into each well of the JESS cartridge (SM-W001; Bio-techne) and the JESS run was performed using 1:900 dilution of anti-human MLLT1 antibody (14893; Cell signaling technology) and 1:1200 dilution of anti-human GAPDH antibody (2118; Cell signaling technology) with anti-rabbit secondary detection module (DM-001; Bio-Techne). Post run, data were analysed using “Compass for SW” software for chemiluminescent detection. The peak area for each band was used for the calculation of MLLT1 degradation with respect to DMSO control. Data is shown as “MLLT1% degradation”. • Category A: A≥75% degradation • Category B: 50%≤B<75% degradation • Category C: 25%≤C<50% degradation • Category D: D<25% degradation

MLLT1% Degradation @ 0.01 μM | MLLT1% Degradation @ 0.1 μM | MLLT1% Degradation @ 1 μM | Compound
A (Category A: A≥75% degradation) | A (Category A: A≥75% degradation) | A (Category A: A≥75% degradation) | Cc1nn(CCCCCCCC#Cc2cccc3c2CN(C2CCC(=O)NC2=O)C3=O)c2cc(C(=O)Nc3cc4[nH]c([C@H]5CC6(CC6)CN5C)cc4cn3)ccc12 (stereo in doubt) [Example 56, 1-(9-(2-(2,6-dioxopiperidin-3-yl)-1-oxoisoindolin-4-yl)non-8-yn-1-yl)-3-methyl-N-(2-((rel-R)-5-methyl-5-azaspiro[2.4]heptan-6-yl)-1H-pyrrolo[3,2-c]pyridin-6-yl)-1H-indazole-6-carboxamide]
B (Category B: 50%≤B<75% degradation) | A (Category A: A≥75% degradation) | A (Category A: A≥75% degradation) | Cc1nn(CC2CCN(c3cccc4c3CN(C3CCC(=O)NC3=O)C4=O)CC2)c2cc(C(=O)Nc3cc4[nH]c([C@H]5CCCN5C)cc4cn3)ccc12 (stereo in doubt) [Example 108, 1-((1-(2-((rel-R)-2,6-dioxopiperidin-3-yl)-1-oxoisoindolin-4-yl)piperidin-4-yl)methyl)-3-methyl-N-(2-((R)-1-methylpyrrolidin-2-yl)-1H-pyrrolo[3,2-c]pyridin-6-yl)-1H-indazole-6-carboxamide]
D (Category D: D<25% degradation) | D (Category D: D<25% degradation) | B (Category B: 50%≤B<75% degradation) | Cc1nn(CCCCCCCCNc2cccc3c2C(=O)N(C2CCC(=O)NC2=O)C3=O)c2cc(C(=O)Nc3cc4[nH]c([C@@H]5CCCN5C)cc4cn3)ccc12 (stereo partly drawn) [Example 4, 1-(8-{[2-(2,6-dioxopiperidin-3-yl)-1,3-dioxoisoindol-4-yl]amino}octyl)-3-methyl-N-{2-[(2S)-1-methylpyrrolidin-2-yl]-1H-pyrrolo[3,2-c]pyridin-6-yl}indazole-6-carboxamide]
B (Category B: 50%≤B<75% degradation) | B (Category B: 50%≤B<75% degradation) | C (Category C: 25%≤C<50% degradation) | Cc1c2ccc(C(=O)Nc3cc4[nH]c([C@H]5CCCN5C)cc4cn3)cc2nn1CCCCCCCCNc1cccc2c1C(=O)N(C1CCC(=O)NC1=O)C2=O (stereo partly drawn) [Example 5, 2-(8-((2-(2,6-dioxopiperidin-3-yl)-1,3-dioxoisoindolin-4-yl)amino)octyl)-3-methyl-N-(2-((R)-1-methylpyrrolidin-2-yl)-1H-pyrrolo[3,2-c]pyridin-6-yl)-2H-indazole-6-carboxamide]
C (Category C: 25%≤C<50% degradation) | B (Category B: 50%≤B<75% degradation) | A (Category A: A≥75% degradation) | CN1CCC[C@@H]1c1cc2cnc(NC(=O)c3ccc4c(c3)c(N3CCC(CN5CCN(c6cc7c(cc6F)C(=O)N(C6CCC(=O)NC6=O)C7=O)CC5)CC3)nn4C)cc2[nH]1 (stereo partly drawn) [Example 6, 3-[4-({4-[2-(2,6-dioxopiperidin-3-yl)-6-fluoro-1,3-dioxoisoindol-5-yl]piperazin-1-yl}methyl)piperidin-1-yl]-1-methyl-N-{2-[(2R)-1-methylpyrrolidin-2-yl]-1H-pyrrolo[3,2-c]pyridin-6-yl}indazole-5-carboxamide]
D (Category D: D<25% degradation) | C (Category C: 25%≤C<50% degradation) | A (Category A: A≥75% degradation) | Cc1c(OCCCCCCCCn2nc(C)c3ccc(C(=O)Nc4cc5[nH]c([C@H]6CCCN6C)cc5cn4)cc32)cccc1N1CCC(=O)NC1=O [Example 9, 1-{8-[3-(2,4-dioxo-1,3-diazinan-1-yl)-2-methylphenoxy]octyl}-3-methyl-N-{2-[(2R)-1-methylpyrrolidin-2-yl]-1H-pyrrolo[3,2-c]pyridin-6-yl}indazole-6-carboxamide]
C (Category C: 25%≤C<50% degradation) | C (Category C: 25%≤C<50% degradation) | C (Category C: 25%≤C<50% degradation) | Cc1c(OCCCCCCn2nc(C)c3ccc(C(=O)Nc4cc5[nH]c([C@H]6CCCN6C)cc5cn4)cc32)cccc1N1CCC(=O)NC1=O [Example 10, 1-{6-[3-(2,4-dioxo-1,3-diazinan-1-yl)-2-methylphenoxy]hexyl}-3-methyl-N-{2-[(2R)-1-methylpyrrolidin-2-yl]-1H-pyrrolo[3,2-c]pyridin-6-yl}indazole-6-carboxamide]
C (Category C: 25%≤C<50% degradation) | C (Category C: 25%≤C<50% degradation) | A (Category A: A≥75% degradation) | Cc1nn(CCCCN2CCN(c3ccc4c(c3)C(=O)N(C3CCC(=O)NC3=O)C4=O)CC2)c2cc(C(=O)Nc3cc4[nH]c([C@@H]5CCCN5C)cc4cn3)ccc12 (stereo partly drawn) [Example 20, 1-(4-{4-[2-(2,6-dioxopiperidin-3-yl)-1,3-dioxoisoindol-5-yl]piperazin-1-yl}butyl)-3-methyl-N-{2-[(2S)-1-methylpyrrolidin-2-yl]-1H-pyrrolo[3,2-c]pyridin-6-yl}indazole-6-carboxamide]
 | B (Category B: 50%≤B<75% degradation) | A (Category A: A≥75% degradation) | Cc1nn(CCOCCN2CCN(c3cc4c(cc3F)C(=O)N(C3CCC(=O)NC3=O)C4=O)CC2)c2cc(C(=O)Nc3cc4[nH]c([C@H]5CCCN5C)cc4cn3)ccc12 (stereo partly drawn) [Example 24, 1-(2-(2-(4-(2-(2,6-dioxopiperidin-3-yl)-6-fluoro-1,3-dioxoisoindolin-5-yl)piperazin-1-yl)ethoxy)ethyl)-3-methyl-N-(2-((R)-1-methylpyrrolidin-2-yl)-1H-pyrrolo[3,2-c]pyridin-6-yl)-1H-indazole-6-carboxamide]
 | C (Category C: 25%≤C<50% degradation) | C (Category C: 25%≤C<50% degradation) | Cc1nn(CCCC2CCN(c3ccc(C(=O)NC4CCC(=O)NC4=O)cc3F)CC2)c2cc(C(=O)Nc3cc4[nH]c([C@H]5CCCN5C)cc4cn3)ccc12 (stereo partly drawn) [Example 28, 1-(3-(1-(4-((2,6-dioxopiperidin-3-yl)carbamoyl)-2-fluorophenyl)piperidin-4-yl)propyl)-3-methyl-N-(2-((R)-1-methylpyrrolidin-2-yl)-1H-pyrrolo[3,2-c]pyridin-6-yl)-1H-indazole-6-carboxamide]
D (Category D: D<25% degradation) | B (Category B: 50%≤B<75% degradation) | A (Category A: A≥75% degradation) | Cc1nn(CCCCCC#Cc2cccc(C(=O)NC3CCC(=O)NC3=O)c2F)c2cc(C(=O)Nc3cc4[nH]c([C@H]5CCCN5C)cc4cn3)ccc12 (stereo partly drawn) [Example 34, 1-(7-(3-((2,6-dioxopiperidin-3-yl)carbamoyl)-2-fluorophenyl)hept-6-yn-1-yl)-3-methyl-N-(2-((R)-1-methylpyrrolidin-2-yl)-1H-pyrrolo[3,2-c]pyridin-6-yl)-1H-indazole-6-carboxamide]
C (Category C: 25%≤C<50% degradation) | D (Category D: D<25% degradation) | B (Category B: 50%≤B<75% degradation) | Cc1c(C#CCCCCCn2nc(C)c3ccc(C(=O)Nc4cc5[nH]c([C@H]6CCCN6C)cc5cn4)cc32)cccc1C(=O)NC1CCC(=O)NC1=O (stereo partly drawn) [Example 35, 1-(7-(3-((2,6-dioxopiperidin-3-yl)carbamoyl)-2-methylphenyl)hept-6-yn-1-yl)-3-methyl-N-(2-((R)-1-methylpyrrolidin-2-yl)-1H-pyrrolo[3,2-c]pyridin-6-yl)-1H-indazole-6-carboxamide]
D (Category D: D<25% degradation) | C (Category C: 25%≤C<50% degradation) | B (Category B: 50%≤B<75% degradation) | Cc1nn(CCCCCCCC#Cc2ccc(C(=O)N[C@H]3CCC(=O)NC3=O)nc2)c2cc(C(=O)Nc3cc4[nH]c([C@H]5CCCN5C)cc4cn3)ccc12 [Example 41, 1-(9-(6-(((S)-2,6-dioxopiperidin-3-yl)carbamoyl)pyridin-3-yl)non-8-yn-1-yl)-3-methyl-N-(2-((R)-1-methylpyrrolidin-2-yl)-1H-pyrrolo[3,2-c]pyridin-6-yl)-1H-indazole-6-carboxamide]
